Assay results as given in ChEMBL document CHEMBL3885861, “Open TG-GATES”.

Organism: Rattus norvegicus
Experiment: Open TG-GATES - Regimen: Single
Type: toxicity, organism-based, Sprague-Dawley
Parameters: regimen Single, gender Male, age 6 weeks
Details: in vivo, po, 100 mg/kg, route gavage, dose level Low; for APTT / Bas / Eos / Fbg / Hb / Ht / Lym / MCH / MCHC / MCV / Mono / Neu / PT / Plat / RBC / Ret / WBC: tissue Blood; for KIDNEY_L / KIDNEY_R / KIDNEY_TOTAL: tissue Kidney; for LIVER: tissue Liver; for A/G / ALP / ALT / AST / BUN / CRE / Ca / Cl / DBIL / GLC / IP / K / LDH / Na / PL / RALB / TBIL / TC / TG / TP / gamma-GTP: tissue Plasma

What does the source list for O=C(OC[C@H]1O[C@@H](OC(=O)c2cc(O)c(O)c(OC(=O)c3cc(O)c(O)c(O)c3)c2)[C@H](OC(=O)c2cc(O)c(O)c(OC(=O)c3cc(O)c(O)c(O)c3)c2)[C@@H](OC(=O)c2cc(O)c(O)c(OC(=O)c3cc(O)c(O)c(O)c3)c2)[C@@H]1OC(=O)c1cc(O)c(O)c(OC(=O)c2cc(O)c(O)c(O)c2)c1)c1cc(O)c(O)c(OC(=O)c2cc(O)c(O)c(O)c2)c1 [TANNIC ACID]?
TERMINAL_BW (3 h): 188.9 g; APTT (3 h): 16.1 s; Bas (3 h): 0%; Eos (3 h): 1.2%; Fbg (3 h): 212.2 mg/dL; Hb (3 h): 13 g/dL; Ht (3 h): 38.5%; Lym (3 h): 82%; MCH (3 h): 22.2 pg; MCHC (3 h): 33.8%; MCV (3 h): 65.6 fL; Mono (3 h): 5.8%; Neu (3 h): 11.2%; PT (3 h): 11.5 s; Plat (3 h): 112.2 x10_4/uL; RBC (3 h): 587 x10_4/ul; Ret (3 h): 10.1%; WBC (3 h): 96.7 x10_2/uL; KIDNEY_L (3 h): 0.9 g; KIDNEY_R (3 h): 0.9 g; KIDNEY_TOTAL (3 h): 1.7 g; LIVER (3 h): 8.6 g; A/G (3 h): 2; ALP (3 h): 882 IU/L; ALT (3 h): 37.8 IU/L; AST (3 h): 70.2 IU/L; BUN (3 h): 15.8 mg/dL; CRE (3 h): 0.5 mg/dL; Ca (3 h): 10.9 mg/dL; Cl (3 h): 105 meq/L; DBIL (3 h): 0.018 mg/dL; GLC (3 h): 198 mg/dL; IP (3 h): 10.2 mg/dL; K (3 h): 4.9 meq/L; LDH (3 h): 75 IU/L; Na (3 h): 139.2 meq/L; PL (3 h): 128.8 mg/dL; RALB (3 h): 3.5 g/dL; TBIL (3 h): 0.5 mg/dL; TC (3 h): 68.6 mg/dL; TG (3 h): 47.6 mg/dL; TP (3 h): 5.3 g/dL; gamma-GTP (3 h): 2.2 IU/L; TERMINAL_BW (6 h): 185 g; APTT (6 h): 17.1 s; Bas (6 h): 0%; Eos (6 h): 1%; Fbg (6 h): 212.6 mg/dL; Hb (6 h): 12.7 g/dL; Ht (6 h): 37.9%; Lym (6 h): 78.4%; MCH (6 h): 22.6 pg; MCHC (6 h): 33.5%; MCV (6 h): 67.3 fL; Mono (6 h): 6.4%; Neu (6 h): 14.6%; PT (6 h): 12 s; Plat (6 h): 109.6 x10_4/uL; RBC (6 h): 564 x10_4/ul; Ret (6 h): 10.4%; WBC (6 h): 85.8 x10_2/uL; KIDNEY_L (6 h): 0.9 g; KIDNEY_R (6 h): 0.9 g; KIDNEY_TOTAL (6 h): 1.8 g; LIVER (6 h): 8.5 g; A/G (6 h): 2; ALP (6 h): 684.8 IU/L; ALT (6 h): 38.6 IU/L; AST (6 h): 70.4 IU/L; BUN (6 h): 12.6 mg/dL; CRE (6 h): 0.5 mg/dL; Ca (6 h): 10.8 mg/dL; Cl (6 h): 105 meq/L; DBIL (6 h): 0.032 mg/dL; GLC (6 h): 188.2 mg/dL; IP (6 h): 10.4 mg/dL; K (6 h): 4.5 meq/L; LDH (6 h): 102.8 IU/L; Na (6 h): 140.6 meq/L; PL (6 h): 140.2 mg/dL; RALB (6 h): 3.5 g/dL; TBIL (6 h): 0.5 mg/dL; TC (6 h): 86 mg/dL; TG (6 h): 41.4 mg/dL; TP (6 h): 5.3 g/dL; gamma-GTP (6 h): 1.2 IU/L; TERMINAL_BW (9 h): 180.9 g; APTT (9 h): 16.4 s; Bas (9 h): 0%; Eos (9 h): 1%; Fbg (9 h): 217.4 mg/dL; Hb (9 h): 13.2 g/dL; Ht (9 h): 39.3%; Lym (9 h): 80.4%; MCH (9 h): 22.3 pg; MCHC (9 h): 33.6%; MCV (9 h): 66.5 fL; Mono (9 h): 6.8%; Neu (9 h): 12%; PT (9 h): 12 s; Plat (9 h): 112.9 x10_4/uL; RBC (9 h): 591.6 x10_4/ul; Ret (9 h): 10.1%; WBC (9 h): 105.1 x10_2/uL; KIDNEY_L (9 h): 0.8 g; KIDNEY_R (9 h): 0.8 g; KIDNEY_TOTAL (9 h): 1.6 g; LIVER (9 h): 7.2 g; A/G (9 h): 2; ALP (9 h): 837.8 IU/L; ALT (9 h): 35.2 IU/L; AST (9 h): 64.2 IU/L; BUN (9 h): 12.6 mg/dL; CRE (9 h): 0.4 mg/dL; Ca (9 h): 10.3 mg/dL; Cl (9 h): 106.4 meq/L; DBIL (9 h): 0.072 mg/dL; GLC (9 h): 190.2 mg/dL; IP (9 h): 10.2 mg/dL; K (9 h): 4.9 meq/L; LDH (9 h): 101.4 IU/L; Na (9 h): 137.6 meq/L; PL (9 h): 135.2 mg/dL; RALB (9 h): 3.6 g/dL; TBIL (9 h): 0.5 mg/dL; TC (9 h): 78.8 mg/dL; TG (9 h): 24.6 mg/dL; TP (9 h): 5.4 g/dL; gamma-GTP (9 h): 1.6 IU/L; TERMINAL_BW (24 h): 201.1 g; APTT (24 h): 16.7 s; Bas (24 h): 0%; Eos (24 h): 1%; Fbg (24 h): 227.8 mg/dL; Hb (24 h): 12.8 g/dL; Ht (24 h): 38.4%; Lym (24 h): 78.8%; MCH (24 h): 21.9 pg; MCHC (24 h): 33.4%; MCV (24 h): 65.6 fL; Mono (24 h): 5.4%; Neu (24 h): 14.8%; PT (24 h): 11.7 s; Plat (24 h): 114.5 x10_4/uL; RBC (24 h): 585.2 x10_4/ul; Ret (24 h): 10.1%; WBC (24 h): 96.6 x10_2/uL; KIDNEY_L (24 h): 0.9 g; KIDNEY_R (24 h): 0.9 g; KIDNEY_TOTAL (24 h): 1.8 g; LIVER (24 h): 9.7 g; A/G (24 h): 2; ALP (24 h): 823.4 IU/L; ALT (24 h): 41.2 IU/L; AST (24 h): 63 IU/L; BUN (24 h): 17.8 mg/dL; CRE (24 h): 0.5 mg/dL; Ca (24 h): 10.8 mg/dL; Cl (24 h): 103.8 meq/L; DBIL (24 h): 0.008 mg/dL; GLC (24 h): 190.6 mg/dL; IP (24 h): 8.7 mg/dL; K (24 h): 4.5 meq/L; LDH (24 h): 98.2 IU/L; Na (24 h): 138 meq/L; PL (24 h): 147.2 mg/dL; RALB (24 h): 3.6 g/dL; TBIL (24 h): 0.3 mg/dL; TC (24 h): 81.4 mg/dL; TG (24 h): 101.6 mg/dL; TP (24 h): 5.5 g/dL; gamma-GTP (24 h): 1 IU/L
